{"source": "patent US20100261734A1", "about": "“Methods of Treating Bladder Dysfunction Using Netupitant” (Helsinn Healthcare S.A., priority 2009, published 2010)", "key": {"[1]": {"system": "acetic acid (AA)-induced overactive bladder (OAB)", "experiment": "Cystometric parameters in acetic acid (AA)-induced overactive bladder (OAB) in anesthetized guinea-pigs", "format": "in vivo", "conditions": "for Maximal ICI (intercontraction interval) increase, % of variation from basal values: 0.2% AA bladder infusion, anesthetized guinea-pigs; for Effect on ICI (intercontraction interval): from 10 min up to 60 min post-administration, 0.2% AA", "description": "The effect of netupitant (N) was studied on cystometric parameters in acetic acid (AA)-induced overactive bladder (OAB) in anesthetized guinea-pigs. Results were compared with those obtained with a control and L-733,060 (L), another potent and selective NK1 receptor antagonist. Adult female guinea-pigs were anesthetized with urethane, and the jugular vein and urinary bladder were catheterized for drug administration and intravesical pressure recording, respectively. The urinary bladder was continuously infused with either saline or 0.2% AA. After 30 min stabilization, N, L or their vehicle (glucose 5%) were administered in separate animals (n=10 per group). Intercontraction interval (ICI, sec), and amplitude of micturition (AM, mmHg) were analyzed at 10, 20, 40 and 60 min post administration. For each dose, maximal effects were expressed as % of variation from respective basal values. ED50% (doses inducing a 50% increase in ICI) were calculated using linear regressions."}, "[2]": {"experiment": "Pharmacokinetic profile of netupitant in humans after a single oral dose", "format": "in vivo", "conditions": "for Cl/F / Kel / tlag / AUC(0-inf) / AUC(0-t) / Cmax / Tmax / half-life / Vd/F: healthy volunteers, mean, N = 4; for AUC(0-inf) / AUC(0-t) / Cmax / Tmax / half-life / Vd/F: human, plasma; for Vd/F: read-out: Vz/F", "procedure": "The pharmacokinetic profile of netupitant (N) in humans was examined in a randomised, double-blind, placebo controlled study comprising 5 dose groups (10, 30, 100, 300 and 450 mg) with 6 subjects in each group, of whom four received netupitant and two received placebo."}}, "note": "Like-named read-outs stand apart in the source and are kept apart here.", "data": [{"smiles": "FC(F)(F)c1cc(CO[C@H]2CCCN[C@H]2c2ccccc2)cc(C(F)(F)F)c1", "note": "[L-733,060, reference compound]", "values": [{"measurement": "Maximal ICI (intercontraction interval) increase, % of variation from basal values", "setting": "[1]; 3 mg/kg i.v.", "result": "+40±10%"}, {"measurement": "Maximal ICI (intercontraction interval) increase, % of variation from basal values", "setting": "[1]; 10 mg/kg i.v.", "result": "+76±11%"}, {"measurement": "Maximal effect on amplitude of micturition (AM), % of variation from basal values", "setting": "[1]; 10 mg/kg, 10 min after administration", "result": "−28±5", "unit": "%"}, {"measurement": "Effect on amplitude of micturition (AM)", "setting": "[1]; 10 mg/kg, p<0.05 versus basal values", "result": "decreased significantly AM"}, {"measurement": "Effect on ICI (intercontraction interval)", "setting": "[1]", "result": "dose-dependently and significantly increased ICI"}, {"measurement": "ED50% (dose inducing a 50% increase in ICI)", "setting": "[1]; i.v., calculated using linear regressions", "result": 5.13, "unit": "mg/kg"}]}, {"smiles": "Cc1ccccc1-c1cc(N2CCN(C)CC2)ncc1N(C)C(=O)C(C)(C)c1cc(C(F)(F)F)cc(C(F)(F)F)c1", "note": "[netupitant, 2-[3,5-bis(trifluoromethyl)phenyl]-N,2-dimethyl-N-[4-(2-methylphenyl)-6-(4-methylpiperazin-1-yl)pyridin-3-yl]propanamide]", "values": [{"measurement": "Maximal ICI (intercontraction interval) increase, % of variation from basal values", "setting": "[1]; 0.1 mg/kg i.v.", "result": "+51±15%"}, {"measurement": "Maximal ICI (intercontraction interval) increase, % of variation from basal values", "setting": "[1]; 0.3 mg/kg i.v.", "result": "+44±8%"}, {"measurement": "Maximal ICI (intercontraction interval) increase, % of variation from basal values", "setting": "[1]; 1 mg/kg i.v.", "result": "+69±8%"}, {"measurement": "Maximal effect on amplitude of micturition (AM), % of variation from basal values", "setting": "[1]; 1 mg/kg, 20 min after administration", "result": "−13±6", "unit": "%"}, {"measurement": "Maximal ICI (intercontraction interval) increase, % of variation from basal values", "setting": "[1]; 3 mg/kg i.v.", "result": "+96±20%"}, {"measurement": "ED50", "setting": "[1]; Cavia porcellus, iv, calculated using linear regressions, read-out: ED50% (dose inducing a 50% increase in ICI)", "result": 0.62, "unit": "mg/kg"}, {"measurement": "Potency relative to L in view of ED50% values", "setting": "[1]; N versus L", "result": "about 16 fold"}, {"measurement": "Effect on amplitude of micturition (AM)", "setting": "[1]; doses 0.1-3 mg/kg", "result": "devoid of significant effect on AM"}, {"measurement": "Effect on ICI (intercontraction interval)", "setting": "[1]", "result": "dose-dependently and significantly increased ICI"}, {"measurement": "Cl/F", "setting": "[2]; 10 mg oral", "result": 44.0, "unit": "L/h"}, {"measurement": "Kel", "setting": "[2]; 10 mg oral", "result": 0.0435, "unit": "h⁻¹"}, {"measurement": "tlag", "setting": "[2]; 10 mg oral", "result": 1.88, "unit": "h"}, {"measurement": "Cl/F", "setting": "[2]; 30 mg oral", "result": 35.5, "unit": "L/h"}, {"measurement": "Kel", "setting": "[2]; 30 mg oral", "result": 0.027, "unit": "h⁻¹"}, {"measurement": "tlag", "setting": "[2]; 30 mg oral", "result": 1.75, "unit": "h"}, {"measurement": "Cl/F", "setting": "[2]; 100 mg oral", "result": 22.1, "unit": "L/h"}, {"measurement": "Kel", "setting": "[2]; 100 mg oral", "result": 0.0139, "unit": "h⁻¹"}, {"measurement": "tlag", "setting": "[2]; 100 mg oral", "result": 1.88, "unit": "h"}, {"measurement": "Cl/F", "setting": "[2]; 300 mg oral", "result": 12.6, "unit": "L/h"}, {"measurement": "Kel", "setting": "[2]; 300 mg oral", "result": 0.0154, "unit": "h⁻¹"}, {"measurement": "tlag", "setting": "[2]; 300 mg oral", "result": 0.81, "unit": "h"}, {"measurement": "Cl/F", "setting": "[2]; 450 mg oral", "result": 10.6, "unit": "L/h"}, {"measurement": "Kel", "setting": "[2]; 450 mg oral", "result": 0.0124, "unit": "h⁻¹"}, {"measurement": "tlag", "setting": "[2]; 450 mg oral", "result": 1.26, "unit": "h"}, {"measurement": "AUC(0-inf)", "setting": "[2]; 10 mg oral", "result": 233, "unit": "ng·h/mL"}, {"measurement": "AUC(0-t)", "setting": "[2]; 10 mg oral", "result": 140, "unit": "ng·h/mL"}, {"measurement": "Cmax", "setting": "[2]; 10 mg oral", "result": 8.76, "unit": "ng/mL"}, {"measurement": "Tmax", "setting": "[2]; 10 mg oral", "result": 5.75, "unit": "h"}, {"measurement": "half-life", "setting": "[2]; 10 mg oral", "result": 960, "unit": "min"}, {"measurement": "Vd/F", "setting": "[2]; 10 mg oral", "result": 1010, "unit": "L"}, {"measurement": "AUC(0-inf)", "setting": "[2]; 30 mg oral", "result": 995, "unit": "ng·h/mL"}, {"measurement": "AUC(0-t)", "setting": "[2]; 30 mg oral", "result": 870, "unit": "ng·h/mL"}, {"measurement": "Cmax", "setting": "[2]; 30 mg oral", "result": 36, "unit": "ng/mL"}, {"measurement": "Tmax", "setting": "[2]; 30 mg oral", "result": 5.76, "unit": "h"}, {"measurement": "half-life", "setting": "[2]; 30 mg oral", "result": 1750, "unit": "min"}, {"measurement": "Vd/F", "setting": "[2]; 30 mg oral", "result": 1320, "unit": "L"}, {"measurement": "AUC(0-inf)", "setting": "[2]; 100 mg oral", "result": 4800, "unit": "ng·h/mL"}, {"measurement": "AUC(0-t)", "setting": "[2]; 100 mg oral", "result": 4360, "unit": "ng·h/mL"}, {"measurement": "Cmax", "setting": "[2]; 100 mg oral", "result": 168, "unit": "ng/mL"}, {"measurement": "Tmax", "setting": "[2]; 100 mg oral", "result": 5, "unit": "h"}, {"measurement": "half-life", "setting": "[2]; 100 mg oral", "result": 3250, "unit": "min"}, {"measurement": "Vd/F", "setting": "[2]; 100 mg oral", "result": 1710, "unit": "L"}, {"measurement": "AUC(0-inf)", "setting": "[2]; 300 mg oral", "result": 25200, "unit": "ng·h/mL"}, {"measurement": "AUC(0-t)", "setting": "[2]; 300 mg oral", "result": 23100, "unit": "ng·h/mL"}, {"measurement": "Cmax", "setting": "[2]; 300 mg oral", "result": 747, "unit": "ng/mL"}, {"measurement": "Tmax", "setting": "[2]; 300 mg oral", "result": 5, "unit": "h"}, {"measurement": "half-life", "setting": "[2]; 300 mg oral", "result": 2890, "unit": "min"}, {"measurement": "Vd/F", "setting": "[2]; 300 mg oral", "result": 850, "unit": "L"}, {"measurement": "AUC(0-inf)", "setting": "[2]; 450 mg oral", "result": 43700, "unit": "ng·h/mL"}, {"measurement": "AUC(0-t)", "setting": "[2]; 450 mg oral", "result": 36600, "unit": "ng·h/mL"}, {"measurement": "Cmax", "setting": "[2]; 450 mg oral", "result": 1130, "unit": "ng/mL"}, {"measurement": "Tmax", "setting": "[2]; 450 mg oral", "result": 5.76, "unit": "h"}, {"measurement": "half-life", "setting": "[2]; 450 mg oral", "result": 3580, "unit": "min"}, {"measurement": "Vd/F", "setting": "[2]; 450 mg oral", "result": 881, "unit": "L"}, {"measurement": "Plasma exposure (Cmax and AUC) versus dose", "setting": "[2]; oral 10-450 mg, humans", "result": "increased super-proportionally with dose"}, {"measurement": "Time at which maximum plasma levels are reached post-dose", "setting": "[2]; oral administration, humans", "result": "approximately 5 hours"}]}]}
